In experiment [1] the target is T1, TrkB (Homo sapiens, UniProt Q16620).
T1 construct: host or cells: U2OS (human osteosarcoma), co-expressing p75 and SHC-1 fused to the enzyme acceptor
The experiment can be described thus: TrkB PathHunter cell-based assay (U2OS-TrkB/p75). As for the experimental part: U2OS cells were maintained subconfluent in EMEM supplemented with 10% FBS and penicillin/streptomycin/hygromycin and G418. One day prior to the experiment, 5000 cells of EMEM supplemented with 0.5% horse serum were seeded in each well of a 384-well white plate. The assay was performed as previously described. Briefly, the TrkA or TrkB cell-based PathHunter® assays use enzyme fragment complementation (EFC) technology for the complementation of two β-galactosidase (β-gal) fragments in order to study protein–protein interactions. Upon activation with ligand, TrkA or TrkB are phosphorylated on several tyrosine residues, including tyrosine 490, leading to an interaction with SHC-1. In the PathHunter® assays, the Trk-receptors are fused to an enzyme donor tag, and SHC-1 is fused to a larger part of β-gal called an enzyme acceptor. The interactions between the recombinant enzyme donor, i.e., the Trk-receptor, with an enzyme acceptor, i.e., SHC-1, leads to an active β-gal enzyme. The functional (complemented) β-gal will hydrolyze a substrate to generate a luminescence signal. The generated luminescence was read using an EnVision plate reader from PerkinElmer, Upplands Väsby, Sweden, or an ID5 plate reader from Molecular Devices, Berkshire, RG41 5TS UK. […] Min- and Max-control wells were included on each plate. A compound was considered a hit if the percent activation was more than 50% and if the value was two standard deviations higher than the mean value of all of the samples on the plate. The average activation of all of samples on 10 different 384-well plates was 31%. […] Due to the risk of adverse events with the systemic administration of TrkA agonists, the screen and the re-screen processes were designed to increase the likelihood of identifying the positive modulators of NGF-signaling rather than identifying TrkA agonists. Based on the results of the re-screen, in combination with the physical–chemical properties of the molecules, a collection of hits was used for the EC50 determinations.
Both Toltrazuril and Ponazuril are registered veterinary products prescribed for parasitic infections in animals. […] The cellular response to NGF or BDNF was measured using PathHunter® assays employing β-gal enzyme fragment complementation technology. The activation of Trk-receptors leads to an intracellular interaction between the Trk-receptor and SHC-1 and thereby to the complementation of β-gal, which will render in a functional enzyme. β-gal will hydrolyze a substrate to generate luminescence, which is proportional to the number of activated receptors. […]

The test system of experiment [2] is extracellular neurotransmitter levels in ventral hippocampus. Briefly: In vivo microdialysis of neurotransmitters in ventral hippocampus. Set-up: species or system rat. The method, then:
The microdialysis experiments were conducted using Pronexus AB, Bromma, Sweden (ethical permit N24/14) on awake, freely moving Sprague Dawley rats (n = 6, 7–8 weeks old from Janvier Labs, Le Genest-Saint-Isle, France) as previously described. On the day of the microdialysis experiment, the rat was in its home cage and placed into a frame of a single-beam locomotor activity monitoring system. Locomotor activity of rats undergoing microdialysis sampling was recorded simultaneously in 5-min intervals. A microdialysis probe (Eicom A-I: 0.22 mm O.D., 4 mm membrane length with 50 kDa cut-off) was inserted into the guide cannula of the awake rat. The probe was connected with fluorinated ethylene propylene (FEP) tubing (0.1 mm I.D.) to the balancing arm of the CMA 120 system for freely moving animals (CMA/Microdialysis) equipped with a 2-channel swivel (Microbiotech/se AB, Stockholm, Sweden). […] Concentrations of acetylcholine (ACh) and glutamate (Glu) in the microdialysis samples were measured using ultra-high performance liquid chromatography tandem mass spectrometry (UHPLC-MS/MS), whereas the levels of the monoamines dopamine (DA), noradrenaline (NA), and […] (5-HT) in the microdialysates were measured using ion-exchange narrow bore column liquid chromatography with electrochemical detection as described elsewhere. […]

Results on one molecule are retold here after publication PMC8391421, “Identification of Novel Positive Allosteric Modulators of Neurotrophin Receptors for the Treatment of Cognitive Dysfunction” (Cells, 2021).

Molecules are shown by their SMILES.

T1 sequence (Q16620 32-822): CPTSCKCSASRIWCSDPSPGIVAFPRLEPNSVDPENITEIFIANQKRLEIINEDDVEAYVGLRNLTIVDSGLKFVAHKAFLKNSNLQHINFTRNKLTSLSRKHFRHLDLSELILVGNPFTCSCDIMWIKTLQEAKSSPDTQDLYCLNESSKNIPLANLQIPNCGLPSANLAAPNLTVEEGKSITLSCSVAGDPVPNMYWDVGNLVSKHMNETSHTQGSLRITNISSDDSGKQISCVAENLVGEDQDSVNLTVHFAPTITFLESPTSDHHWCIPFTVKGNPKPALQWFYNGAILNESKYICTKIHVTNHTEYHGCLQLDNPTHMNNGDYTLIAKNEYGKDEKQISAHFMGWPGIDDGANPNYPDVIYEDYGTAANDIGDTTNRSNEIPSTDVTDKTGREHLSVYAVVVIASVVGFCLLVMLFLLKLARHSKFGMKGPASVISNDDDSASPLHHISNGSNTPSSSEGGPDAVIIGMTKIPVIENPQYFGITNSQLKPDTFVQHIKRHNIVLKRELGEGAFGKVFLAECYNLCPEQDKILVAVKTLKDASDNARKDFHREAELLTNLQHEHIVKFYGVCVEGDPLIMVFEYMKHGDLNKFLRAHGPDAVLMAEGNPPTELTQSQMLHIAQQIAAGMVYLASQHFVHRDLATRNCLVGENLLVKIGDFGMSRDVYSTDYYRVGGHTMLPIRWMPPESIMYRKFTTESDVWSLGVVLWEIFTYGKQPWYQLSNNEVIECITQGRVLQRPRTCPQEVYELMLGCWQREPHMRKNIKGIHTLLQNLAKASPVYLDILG

Take `Cc1cc(-n2c(=O)[nH]c(=O)n(C)c2=O)ccc1Oc1ccc(S(=O)(=O)C(F)(F)F)cc1` [ACD855, Toltrazuril-sulfone]: in experiment [1] (PathHunter cell-based assay), the EC50 was determined as 3.2 µM and the “TrkB Effect (efficacy)” value is recorded as 319%. Besides, the “activation of TrkB-receptor by compound itself” value in experiment [1] (without ligand, 100% = 30 ng/mL ligand) stood at 45%. In experiment [2] (local infusion of 30 µM over four hours, freely moving rats, vs vehicle (aCSF)), the “increase in extracellular ACh levels in vHPC” value is 40%. For the same molecule, the “levels of glutamate, noradrenaline, dopamine and 5-hydroxytryptamine” value in experiment [2] (local infusion of 30 µM, vHPC) is listed as “not affected”.
